Data as given in US12533310B2, “Fragrance or flavor composition” (Takasago International Corporation, priority 2019, dated 2026).

How the values were obtained:
[1] = target: T1, OR2C1 (Homo sapiens, UniProt O95371); assay: Suppressive effect of offensive odor-suppressing materials on the response of OR2C1; type: cell-based; conditions: for suppressive effect on the response of OR2C1 to 1-octen-3-one: mixed at various concentrations with 30 μM 1-octen-3-one, response without material set to 100, FIGS. 7 and 8; for suppressive effect on the response of OR2C1 to trans-2-nonenal: mixed at various concentrations with 60 μM trans-2-nonenal, FIGS. 9 and 10; for suppressing the response of OR2C1: odorous substance not stated
T1 construct: N-terminal 20 amino acid residues of bovine rhodopsin (Rho tag); expressed in transfected cells; host or cells: HEK293T
T1 sequence (O95371 1-312): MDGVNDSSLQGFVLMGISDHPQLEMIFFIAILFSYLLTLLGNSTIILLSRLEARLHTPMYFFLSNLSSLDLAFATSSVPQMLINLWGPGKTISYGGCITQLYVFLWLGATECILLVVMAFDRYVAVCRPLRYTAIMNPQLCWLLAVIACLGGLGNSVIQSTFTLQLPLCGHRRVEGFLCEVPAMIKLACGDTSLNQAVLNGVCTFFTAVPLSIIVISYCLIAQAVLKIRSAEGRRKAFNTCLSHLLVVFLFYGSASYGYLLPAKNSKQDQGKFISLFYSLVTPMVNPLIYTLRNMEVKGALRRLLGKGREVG
Method: (§1) After removal of the culture solutions, an odorous substance serving as an analyte, which had been prepared at a given concentration with CD293 (gibco) medium (supplemented with […] L-glutamine), was added in 50 μL volumes to stimulate the cells for 3 hours, followed by luciferase activity measurement in accordance with the usage of a Dual-Luciferase Reporter Assay System (Promega). The response intensity of each olfactory receptor polypeptide was expressed as a fold increase value, which was determined by dividing the luciferase activity generated upon stimulation with the odorous substance by the luciferase activity generated in a test system not containing the odorous substance.
According to the same procedure as shown in Example 1, offensive odor-suppressing materials 2-methyl-4-(2,2,3-trimethylcyclopent-3-enyl)but-2-en-1-ol (also known as 2-methyl-4-(2,2,3-trimethyl-3-cyclopentenyl)-2-buten-1-ol) (Hindinol®) and 1-(2,2,6-trimethylcyclohexyl)hexan-3-ol (Dextramber®) were each mixed at various concentrations with 30 μM 1-octen-3-one, and the cells engineered to express OR2C1 were used to measure the response of this receptor to 1-octen-3-one. The ratio of the fold increase value obtained in the test using the offensive odor-suppressing materials was determined assuming that the fold increase value obtained in the test without mixing the offensive odor-suppressing materials was set to 100.
According to the same procedure as shown in Example 5, offensive odor-suppressing materials 2-methyl-4-(2,2,3-trimethylcyclopent-3-enyl)but-2-en-1-ol (Hindinol®) and 1-(2,2,6-trimethylcyclohexyl)hexan-3-ol (Dextramber®) were each mixed at various concentrations with 60 μM trans-2-nonenal, and the cells engineered to express OR2C1 were used to measure the response of this receptor to trans-2-nonenal.

[2] = Sensory testing of offensive odor intensity, model odors (Example 8); design: species or system human
Method: These fragrance compositions 1 to 48 were confirmed for their ability to suppress offensive odors by sensory testing. As offensive odors, the model age-related body odor, the model underarm odor and the model musty odor indicated in Tables 8 to 10 below were each diluted 100-fold and added dropwise separately in a volume of […] and fragrance compositions 1 to 48 were each added dropwise separately in a volume of 1 μl as a test substance to a cotton ball, which was then enclosed in a plastic bottle (OZO-40, Takemoto Yohki Co., Ltd., Japan). Each bottle was allowed to stand for 1 hour at room temperature to fully volatilize odor molecules in the bottle. Sensory testing was made by 10 panelists assuming that the odor intensity was set to 8 for each offensive odor when added dropwise alone, whereby the offensive odor intensity when a test substance was mixed was evaluated between 0 and 10. The resulting numerical values were used to calculate their mean value.

[3] = Sensory testing of offensive odor intensity, single offensive odors (Example 7); design: species or system human; conditions: for Offensive odor intensity 1,5-Octadien-3-ol: 1,5-octadien-3-ol diluted 100-fold with triethyl citrate; for Offensive odor intensity 1,5-Octadien-3-ol / Offensive odor intensity 1,5-Octadien-3-one / Offensive odor intensity 1-Octen-3-ol / Offensive odor intensity 1-Octen-3-one / Offensive odor intensity Trans-2-nonenal / Offensive odor intensity Trans-2-octenal: 10 μl, test substance 1 μl, odor alone set to 8, scale 0 to 10, mean of 10 panelists; for Offensive odor intensity 1,5-Octadien-3-one: 1,5-octadien-3-one diluted 1000-fold with triethyl citrate; for Offensive odor intensity 1-Octen-3-ol: 1-octen-3-ol diluted 100-fold with triethyl citrate; for Offensive odor intensity 1-Octen-3-one: 1-octen-3-one diluted 100-fold with triethyl citrate; for suppressive effect on offensive odors (each offensive odor of Example 7): summary in words for all six offensive odors; for Offensive odor intensity Trans-2-nonenal: trans-2-nonenal diluted 1000-fold with triethyl citrate; for Offensive odor intensity Trans-2-octenal: trans-2-octenal diluted 1000-fold with triethyl citrate
Source text: Test substances having inhibitory activity on receptor activity were confirmed for their ability to suppress offensive odors by sensory testing. As offensive odors, trans-2-nonenal diluted 1000-fold with triethyl citrate, trans-2-octenal diluted 1000-fold with triethyl citrate, 1-octen-3-one diluted 100-fold with triethyl citrate, 1,5-octadien-3-one diluted 1000-fold with triethyl citrate, 1-octen-3-ol diluted 100-fold with triethyl citrate, and 1,5-octadien-3-ol diluted 100-fold with triethyl citrate were each added dropwise separately in a volume of 10 μl and a test substance was added dropwise in a volume of 1 μl to a cotton ball, which was then enclosed in a plastic bottle (OZO-40, Takemoto Yohki Co., Ltd., Japan). Each bottle was allowed to stand for 1 hour at room temperature to fully volatilize odor molecules in the bottle. Sensory testing was made by 10 panelists assuming that the odor intensity was set to 8 for each offensive odor when added dropwise alone, whereby the offensive odor intensity when a test substance was mixed was evaluated between 0 and 10. The resulting numerical values were used to calculate their mean value.

[4] = test system: cells not engineered to express the olfactory receptors; assay: Mock test of the luciferase reporter gene assay; type: cell-based, human
Method: (§2) Each human olfactory receptor gene expression vector (0.05 μg), RTP1S vector (0.01 μg), firefly luciferase vector pGL4.29 containing a cAMP response element promoter (Promega, 0.01 μg) and Renilla luciferase vector pGL4.74 containing a thymidine kinase promoter (Promega, 0.005 μg) were dissolved in 10 μL of Opti-MEMI (gibco) to give a gene solution (for one well). HEK293T cells were seeded in 100 μL volumes into 96-well plates (Biocoat, Corning) at a cell density reaching confluence after 24 hours, and the gene solutions were added to the respective wells to cause gene transfer into the cells by lipofection techniques in accordance with the usage of Lipofectamine 3000, followed by culture at 37° C. under a 5% carbon dioxide atmosphere for 24 hours.
as §1
(§3) The cells engineered to express human olfactory receptors OR2C1 and OR4Q3 were used to measure the response of these receptors to various concentrations of 1-octen-3-one by the luciferase reporter gene assay.

[5] = target: T2, human olfactory receptor OR4Q3 (Homo sapiens, UniProt Q8NH05); assay: Luciferase reporter gene assay, response of OR4Q3 to odorous substances; type: cell-based; conditions: various concentrations; cells stimulated 3 hours; FIGS. 2, 4, 5, 6
T2 construct: N-terminal 20 amino acid residues of bovine rhodopsin (Rho tag); expressed in transfected cells; host or cells: HEK293T
T2 sequence (Q8NH05 1-313): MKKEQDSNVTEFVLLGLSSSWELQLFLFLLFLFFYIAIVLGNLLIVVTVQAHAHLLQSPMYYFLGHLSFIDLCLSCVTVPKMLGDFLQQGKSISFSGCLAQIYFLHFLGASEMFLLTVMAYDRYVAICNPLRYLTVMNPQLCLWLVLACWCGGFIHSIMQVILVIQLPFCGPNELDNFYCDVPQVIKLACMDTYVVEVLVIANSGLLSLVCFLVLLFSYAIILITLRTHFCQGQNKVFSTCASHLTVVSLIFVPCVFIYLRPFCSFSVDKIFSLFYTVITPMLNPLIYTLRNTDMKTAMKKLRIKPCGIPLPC
Method: (§4) Human olfactory receptor genes were obtained by PCR cloning with Human Genomic DNA: Female (Promega) on the basis of their sequence information registered in GenBank. Into pME18S vectors, the N-terminal 20 amino acid residues of bovine rhodopsin were integrated and the resulting human olfactory receptor genes were integrated respectively downstream thereof to obtain human olfactory receptor gene expression vectors.
as §2, §1, §3
According to the same procedure as shown in Example 1, the cells engineered to express human olfactory receptors OR2C1 and OR4Q3 were used to measure the response of these receptors to various concentrations of 1,5-octadien-3-one by the luciferase reporter gene assay.
According to the same procedure as shown in Example 1, the cells engineered to express human olfactory receptor OR4Q3 were used to measure the response of this receptor to various concentrations of 1-octen-3-ol by the luciferase reporter gene assay. […]

[6] = target: T3, human olfactory receptor OR2C1 (Homo sapiens, UniProt O95371); assay: Luciferase reporter gene assay, response of OR2C1 to odorous substances; type: cell-based; conditions: various concentrations; cells stimulated 3 hours; FIGS. 1 and 3
T3 construct: N-terminal 20 amino acid residues of bovine rhodopsin (Rho tag); expressed in transfected cells; host or cells: HEK293T
T3 sequence (O95371 1-312): T1 sequence (O95371 1-312)
Source text: as §4, with “vectors. […]” for “vectors.”
as §1, with “substance. […]” for “substance.”

[7] = target: T4, olfactory receptor OR2W1 (Homo sapiens, UniProt Q9Y3N9); conditions: background art; cited from earlier work
T4 sequence (Q9Y3N9 1-320): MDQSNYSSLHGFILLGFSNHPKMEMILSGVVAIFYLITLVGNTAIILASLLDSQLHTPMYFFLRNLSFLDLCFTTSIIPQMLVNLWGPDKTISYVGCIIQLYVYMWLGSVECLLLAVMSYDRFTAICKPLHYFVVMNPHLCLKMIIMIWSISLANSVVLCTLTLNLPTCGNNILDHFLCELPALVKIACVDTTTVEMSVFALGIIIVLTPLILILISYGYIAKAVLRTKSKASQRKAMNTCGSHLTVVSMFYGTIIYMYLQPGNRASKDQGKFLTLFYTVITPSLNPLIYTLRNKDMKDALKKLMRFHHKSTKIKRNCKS

SMILES	Offensive odor intensity 1,5-Octadien-3-ol [3]	Offensive odor intensity 1,5-Octadien-3-one [3]	Offensive odor intensity 1-Octen-3-ol [3]	Offensive odor intensity 1-Octen-3-one [3]	Offensive odor intensity Trans-2-nonenal [3]	Offensive odor intensity Trans-2-octenal [3]	response in Mock test [4]	response of olfactory receptor OR4Q3 to the odorous substance (fold increase value) [5]	further results
CCCC(O)CCC1C(C)CCCC1(C)C (stereo not shown) [Dextramber, 1-(2,2,6-trimethylcyclohexyl)hexan-3-ol]	1.9	2.6	2.0	2.3	2.8	2.2	–	–	suppressive effect on the response of OR2C1 to 1-octen-3-one [1]: reducing the response of OR2C1 to 1-octen-3-one in a concentration-dependent manner; suppressive effect on the response of OR2C1 to trans-2-nonenal [1]: reducing the response of OR2C1 to trans-2-nonenal in a concentration-dependent manner; suppressing the response of OR2C1 [1]: suppressing the response of OR2C1; suppressive effect on offensive odors (each model odor of Example 8) ([2]; summary in words for the model odors): found to suppress each offensive odor; suppressive effect on offensive odors (each offensive odor of Example 7) [3]: found to suppress each offensive odor
C=CC(O)CCCCC (stereo not shown) [1-octen-3-ol]	–	–	–	–	–	–	no response was observed in a Mock test	respond to 1-octen-3-ol in a concentration-dependent manner	–
C=CC(=O)CC=CCC [1,5-octadien-3-one]	–	–	–	–	–	–	no response was observed in a Mock test	respond to 1,5-octadien-3-one in a concentration-dependent manner	response of olfactory receptor OR2C1 to the odorous substance (fold increase value) [6]: respond to 1,5-octadien-3-one in a concentration-dependent manner
C=CC(=O)CCCCC [1-octen-3-one]	–	–	–	–	–	–	no response was observed in a Mock test	respond to 1-octen-3-one in a concentration-dependent manner	response of olfactory receptor OR2C1 to the odorous substance (fold increase value) [6]: respond to 1-octen-3-one in a concentration-dependent manner
CCCCCC(=O)O [hexanoic acid]	–	–	–	–	–	–	–	–	response of olfactory receptor OR2W1 [7]: responds to hexanoic acid
O=C1CCCCCCCCCCCC(=O)OCCO1 [MUSK T, 1,4-dioxacycloheptadecane-5,17-dione]	3.0	3.2	3.2	2.8	2.9	2.9	–	–	suppressing the response of OR2C1 [1]: suppressing the response of OR2C1; suppressive effect on offensive odors (each offensive odor of Example 7) [3]: found to suppress each offensive odor
C=CC(O)CC=CCC (stereo not shown) [1,5-octadien-3-ol]	–	–	–	–	–	–	no response was observed in a Mock test	respond to 1,5-octadien-3-ol in a concentration-dependent manner	–
CC(=CCC1CC=C(C)C1(C)C)CO (stereo not shown) [Hindinol, 2-methyl-4-(2,2,3-trimethylcyclopent-3-enyl)but-2-en-1-ol]	–	–	–	–	–	–	–	–	suppressive effect on the response of OR2C1 to 1-octen-3-one [1]: reducing the response of OR2C1 to 1-octen-3-one in a concentration-dependent manner; suppressive effect on the response of OR2C1 to trans-2-nonenal [1]: reducing the response of OR2C1 to trans-2-nonenal in a concentration-dependent manner; Offensive odor intensity Model age-related body odor ([2]; model odor of Table 8 diluted 100-fold, fragrance composition 1 μl, odor alone set to 8, scale 0 to 10, mean of 10 panelists): suppress the intensity of the model age-related body odor and the model underarm odor; Offensive odor intensity Model underarm odor ([2]; model odor of Table 9 diluted 100-fold, fragrance composition 1 μl, odor alone set to 8, scale 0 to 10, mean of 10 panelists): suppress the intensity of the model age-related body odor and the model underarm odor
O=C(OCc1ccccc1)c1ccccc1O [Benzyl salicylate, reference compound]	6.5	7.8	7.0	7.5	7.9	7.5	–	–	–
